According to patent US20080139797A1, “OLIGONUCLEOTIDES CONTAINING HIGH CONCENTRATIONS OF GUANINE MONOMERS” (INTEGRATED DNA TECHNOLOGIES, INC., priority 2006, published 2008):

Assay: Solubility of monomers and BTT in 1:1 mixes of acetonitrile and a solvent
Format: physicochemical
Procedure: The BTT (MW 192.2., water content ≦75 ppm) was supplied by emp Biotech GmbH (catalog no. NC-0101-1K, charge/lot no. 050904). The dT (MW 744.83), dG^ibu (MW 839.92), dA^bz (MW 857.93), dC^bz (MW 833.93) monomers were supplied by Proligo. The acetonitrile (MeCN) has a viscosity of 0.345 cP at 25° C. and a dipole moment of 3.92 D.
74.5 mg (100 μmol) of dT monomer was weighed out into each of 7 screw-topped 10 ml vials. 84 mg (100 μmol) of dG^ibu monomer was weighed out into each of 7 screw-topped 10 ml vials. 86 mg (100 μmol) of dA^bz monomer was weighed out into each of 7 screw-topped 10 ml vials. 83 mg (100 μmol) of dC^bz monomer was weighed out into each of 7 screw-topped 10 ml vials. 228 mg (1.2 mmol) of BTT was weighed out into each of 7 screw-topped 10 ml vials.
Six different solvent mixes were prepared by mixing 10 ml of dry acetonitrile with 10 ml of one of the 6 different solvents listed above in separate dry bottles under argon.
To each separate vial of T monomer was added 1 ml of one of the 6 different solvent mixes or pure acetonitrile. The vials were quickly closed and agitated gently. This was repeated with the vials of dG, dA and dC monomers.
To each separate vial of BTT was added 4 ml of one of the 6 solvent mixes.

Compound: c1ccc(CSc2nnn[nH]2)cc1 [BTT, 5-benzylthiotetrazole]
- dissolution of BTT (0.3 M, solvent mixes, all cases except HFIP/MeCN): practically instantaneous
- solubility of BTT (at 0.3 M in all 5 mixes (acetonitrile 1:1 with NMP, DMA, TMU, DMSO, sulfolane)): soluble
- dissolution of BTT (pure acetonitrile, compared with the solvent mixes, gentle warming required for rapid dissolution): not as fast
